Values joined by “and” are separate entries in the source; they are usually repeats but may differ in a detail not shown here. Equal values may be shown once. Read-outs that look alike come from different tables or passages of the source.
What was measured:
σ1 receptor [1] = details: healthy volunteers and HD patients, therapeutic doses; cited from earlier work
dopamine D2/D3 receptors = details: healthy volunteers and HD patients; cited from earlier work
σ1 receptor [2] = details: cited from earlier work
σ2 receptor [3] = details: in Figure 5; cited from earlier work
σ1 receptor [4] = details: in Figure 5; cited from earlier work
σ1 receptor [5] = assay: σ1 receptor affinity (receptor binding); details: ratio Ki(σ2)/Ki(σ1)
[6] = logD7.4 by micro-shake flask method; format: physicochemical; details: n-octanol/MOPS buffer pH 7.4, determined by LC-MS
Procedure: The lipophilicity of the homologous fluoroalkyl derivatives 1–4 was determined by the micro-shake flask method. After the distribution of the compounds between an n-octanol layer and MOPS buffer (pH 7.4), the amount of the compound in the buffer layer was determined by mass spectrometry. The recorded logD7.4 values were compared with the logD7.2 values determined by the distribution of the analogous ^18F-labeled compounds [^18F]1–[^18F]4 between n-octanol and phosphate-buffered saline, pH 7.2. The logD7.2 values were calculated from the distribution of radioactivity in both layers.

human serum albumin = human serum albumin (Homo sapiens, UniProt P02768); assay: plasma protein binding by HPLC on human serum albumin stationary phase; format: in vitro ADME; details: stationary phase coated with human serum albumin
Procedure: Plasma protein binding was recorded by HPLC analysis using a stationary phase coated with human serum albumin. The resulting retention times correlate with binding to human serum albumin [42].

σ2 receptor [7] = biological target: σ2 receptor; parameters: method as in PMID 22136765, PMID 21126878, PMID 21072511, PMID 19791807, PMID 21618432; details: cited from earlier work
[8] = metabolic stability with mouse liver microsomes and NADPH; details: LC-MS
Procedure: After an incubation period of 90 min, the amount of remaining test compound was determined by LC-MS [42, 43, 44].

[9] = pH 7.2; cited from earlier work
σ1 receptor [10] = details: rhesus monkey, 1-tissue compartment model, baseline conditions, N = 1; cited from earlier work
[11] = rhesus monkey, in vivo; cited from earlier work
σ1 receptor [12] = details: cited from earlier work; for SUV120min p.i. as % of SUV5min p.i.: piglet brain; for SUV120min p.i. as % of SUV5min p.i. / whole-brain distribution volume VT: baseline; for VT, cerebellum / VT, colliculi / VT, cortex / VT, hippocampus / VT, midbrain / VT, striatum / VT, thalamus: piglet, Logan plot, baseline conditions, N = 3; for whole-brain distribution volume VT / decrease in VT upon SA 4503 blockade of σ1 receptors / standardized uptake value (SUV) in brain: piglets; for whole-brain distribution volume VT: two-tissue compartment modeling, metabolite-corrected plasma input; for decrease in VT upon SA 4503 blockade of σ1 receptors: whole brain, Logan plot analysis; for standardized uptake value (SUV) in brain: within 3 min after injection
σ1 receptor [13] = details: cited from earlier work; for VT: healthy volunteers
[14] = cited from earlier work
σ1 receptor [15] = details: cited from earlier work; for uptake in the brain: i.v., female CD1-mice
[16] = pure fluspidine enantiomers, read-out: Ki, σ1 receptor affinity
[17] = racemic spirocyclic piperidines, read-out: Ki(σ1)

Chain of human serum albumin (P02768 25-609): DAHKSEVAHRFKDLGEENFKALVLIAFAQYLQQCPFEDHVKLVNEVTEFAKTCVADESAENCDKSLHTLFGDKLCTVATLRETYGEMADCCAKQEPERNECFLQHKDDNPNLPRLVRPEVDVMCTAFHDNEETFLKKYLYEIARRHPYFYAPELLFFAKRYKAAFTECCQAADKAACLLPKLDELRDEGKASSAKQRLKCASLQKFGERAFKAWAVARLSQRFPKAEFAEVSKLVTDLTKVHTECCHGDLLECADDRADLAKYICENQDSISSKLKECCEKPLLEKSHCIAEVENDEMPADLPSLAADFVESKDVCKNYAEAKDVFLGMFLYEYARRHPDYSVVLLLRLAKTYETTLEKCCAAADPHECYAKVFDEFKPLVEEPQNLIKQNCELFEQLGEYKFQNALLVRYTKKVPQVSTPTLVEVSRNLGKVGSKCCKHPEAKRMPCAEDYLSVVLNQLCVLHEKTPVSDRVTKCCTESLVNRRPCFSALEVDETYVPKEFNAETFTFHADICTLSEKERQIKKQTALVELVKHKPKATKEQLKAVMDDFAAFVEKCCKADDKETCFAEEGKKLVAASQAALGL

CCCN1CCC(c2cccc(S(C)(=O)=O)c2)CC1 [pridopidine, 4-[3-(methylsulfonyl)phenyl]-1-propylpiperidine]
binding to the σ1 receptor in the brain (occupancy study) (σ1 receptor [1]): selective binding | occupancy of dopamine D2/D3 receptors (dopamine D2/D3 receptors): minimal occupancy

FCC[C@@H]1OC2(CCN(Cc3ccccc3)CC2)c2ccccc21 [(S)-2]
Ki (σ1 receptor [2]; [16]): 2.3 nM

COc1cc(CCN2CCN(CCCc3ccccc3)CC2)ccc1OC[18F] [[^18F]FM-SA 4503]
Ki (σ2 receptor [3]): 250 nM | Ki (σ1 receptor [4]): 6.4 nM

COc1ccc(CCN2CCN(CCCc3ccccc3)CC2)cc1OC [cutamesine, 1-[2-(3,4-dimethoxyphenyl)ethyl]-4-(3-phenylpropyl)piperazine]
IC50 (σ2 receptor [3]): 63.1 nM | IC50 (σ1 receptor [4]): 4.6 nM

FCC1OC2(CCN(Cc3ccccc3)CC2)c2ccccc21 (stereo not drawn) [compound 1]
σ1/σ2 Selectivity (σ1 receptor [5]): 743 | logD [6]: 2.8 ± 0.04 | fraction unbound (human serum albumin): 0.16 | Ki (σ2 receptor [7]): 0.55 µM | Ki (σ1 receptor [2]; [17]): 0.74 nM | In Vitro Metabolism—Intact Compd. after 90 min [8]: 53% and 53 ± 3.9% | logD7.2 PET Tracer [9]: 2.39 ± 0.04

CCCCN1CCC2(CC1)OC(CCF)c1ccccc12 (stereo not drawn) [compound 8]
σ1/σ2 Selectivity (σ1 receptor [5]): 225 | Ki (σ2 receptor [7]): 0.878 µM | Ki (σ1 receptor [2]; [17]): 3.9 nM

FCCCCC1OC2(CCN(Cc3ccccc3)CC2)c2ccccc21 (stereo not drawn) [compound 4]
σ1/σ2 Selectivity (σ1 receptor [5]): 408 | logD [6]: 3.71 ± 0.14 | fraction unbound (human serum albumin): 0.05 | Ki (σ2 receptor [7]): 0.489 µM | Ki (σ1 receptor [2]; [17]): 1.2 nM | In Vitro Metabolism—Intact Compd. after 90 min [8]: 28% and 28 ± 4.5% | logD7.2 PET Tracer [9]: 3.11 ± 0.14

FCCC1OC2(CCN(Cc3ccccc3)CC2)c2ccccc21 (stereo not drawn) [compound 2]
σ1/σ2 Selectivity (σ1 receptor [5]): 1331 | logD [6]: 3.33 ± 0.07 | fraction unbound (human serum albumin): 0.12 | Ki (σ2 receptor [7]): 0.785 µM | Ki (σ1 receptor [2]; [17]): 0.59 nM | In Vitro Metabolism—Intact Compd. after 90 min [8]: 34% and 34 ± 8.8% | logD7.2 PET Tracer [9]: 2.57 ± 0.32

[18F]CC[C@H]1OC2(CCN(Cc3ccccc3)CC2)c2ccccc21 [(R)-[^18F]2]
VT, amygdala (σ1 receptor [10]): 153 mL/g | VT, caudate (σ1 receptor [10]): 181 mL/g | VT, cerebellum (σ1 receptor [10]): 175 mL/g | VT, cortex (σ1 receptor [10]): 174 to 291 mL/g | VT, hippocampus (σ1 receptor [10]): 193 mL/g | VT, putamen (σ1 receptor [10]): 199 mL/g | VT, thalamus (σ1 receptor [10]): 128 mL/g | fraction of unchanged PET tracer in plasma [11]: > 30% | SUV120min p.i. as % of SUV5min p.i. (σ1 receptor [12]): ~ 80% | VT, cerebellum (σ1 receptor [12]): 140 mL/g | VT, colliculi (σ1 receptor [12]): 123 mL/g | VT, cortex (σ1 receptor [12]): 67.8 to 98.4 mL/g | VT, hippocampus (σ1 receptor [12]): 95.2 mL/g | VT, midbrain (σ1 receptor [12]): 132 mL/g | VT, striatum (σ1 receptor [12]): 100 mL/g | VT, thalamus (σ1 receptor [12]): 106 mL/g | whole-brain distribution volume VT (σ1 receptor [12]): 133 mL/g | decrease in VT upon SA 4503 blockade of σ1 receptors (σ1 receptor [12]): −89% | standardized uptake value (SUV) in brain (σ1 receptor [12]): about 2

FCC[C@H]1OC2(CCN(Cc3ccccc3)CC2)c2ccccc21 [(R)-2]
Ki (σ1 receptor [2]; [16]): 0.57 nM

CC(C)=CCN1CCC2(CC1)OC(CCF)c1ccccc12 (stereo not drawn) [compound 10]
Ki (σ2 receptor [7]; cells printed in µM): > 1 µM | Ki (σ1 receptor [2]; [17]): 1.5 nM

CCCCCCCCN1CCC2(CC1)OC(CCF)c1ccccc12 (stereo not drawn) [compound 9]
σ1/σ2 Selectivity (σ1 receptor [5]): 7.9 | Ki (σ2 receptor [7]): 0.118 µM | Ki (σ1 receptor [2]; [17]): 15 nM

FCCC1OC2(CCN(CC3CCCCC3)CC2)c2ccccc21 (stereo not drawn) [compound 6]
σ1/σ2 Selectivity (σ1 receptor [5]): 80 | Ki (σ2 receptor [7]): 0.057 µM | Ki (σ1 receptor [2]; [17]): 0.71 nM

COc1cc(CCN2CCN(CCCc3ccccc3)CC2)ccc1OCC[18F] [[^18F]FE-SA 4503]
IC50 (σ2 receptor [3]): 2.1 nM | IC50 (σ1 receptor [4]): 6.5 nM

[18F]CC[C@@H]1OC2(CCN(Cc3ccccc3)CC2)c2ccccc21 [(S)-[^18F]2]
VT, amygdala (σ1 receptor [10]): 14.6 mL/g | VT, caudate (σ1 receptor [10]): 13.5 mL/g | VT, cerebellum (σ1 receptor [10]): 13.6 mL/g | VT, cortex (σ1 receptor [10]): 14.6 to 19.6 mL/g | VT, hippocampus (σ1 receptor [10]): 16.4 mL/g | VT, putamen (σ1 receptor [10]): 14.9 mL/g | VT, thalamus (σ1 receptor [10]): 12.2 mL/g | fraction of unchanged PET tracer in plasma [11]: > 30% | SUV120min p.i. as % of SUV5min p.i. (σ1 receptor [12]): ~ 50% | VT, cerebellum (σ1 receptor [12]): 14.8 mL/g | VT, colliculi (σ1 receptor [12]): 15.2 mL/g | VT, cortex (σ1 receptor [12]): 9.8 to 13.1 mL/g | VT, hippocampus (σ1 receptor [12]): 13.5 mL/g | VT, midbrain (σ1 receptor [12]): 15.4 mL/g | VT, striatum (σ1 receptor [12]): 13.5 mL/g | VT, thalamus (σ1 receptor [12]): 14.1 mL/g | whole-brain distribution volume VT (σ1 receptor [12]): 13 mL/g | decrease in VT upon SA 4503 blockade of σ1 receptors (σ1 receptor [12]): −55% | standardized uptake value (SUV) in brain (σ1 receptor [12]): about 2 | VT (σ1 receptor [13]; frontal cortex): 21 mL/g | VT (σ1 receptor [13]; striatum): 19 mL/g | free fraction in blood plasma fp (σ1 receptor [13]; human): 0.023

CC(c1ccccc1)N1CCC2(CC1)OC(CCF)c1ccccc12 (stereo not drawn) [compound 7]
σ1/σ2 Selectivity (σ1 receptor [5]): >1000 | Ki (σ2 receptor [7]; cells printed in µM): > 1 µM | Ki (σ1 receptor [2]; [17]): 1 nM

FCCCC1OC2(CCN(Cc3ccccc3)CC2)c2ccccc21 (stereo not drawn) [compound 3]
σ1/σ2 Selectivity (σ1 receptor [5]): 598 | logD [6]: 3.6 ± 0.12 | fraction unbound (human serum albumin): 0.09 | Ki (σ2 receptor [7]): 0.837 µM | Ki (σ1 receptor [2]; [17]): 1.4 nM | In Vitro Metabolism—Intact Compd. after 90 min [8]: 33% and 33 ± 7.9% | logD7.2 PET Tracer [9]: 2.78 ± 0.06

FCCC1OC2(CCN(Cc3ccc(F)cc3)CC2)c2ccccc21 (stereo not drawn) [compound 5]
σ1/σ2 Selectivity (σ1 receptor [5]): 844 | Ki (σ2 receptor [7]): 0.481 µM | Ki (σ1 receptor [2]; [17]): 0.57 nM

FCCC1OC2(CCN(Cc3ccccc3)CC2)c2ccccc21 (racemic) [rac-[^18F]2]
activity in brain due to unchanged radioligand ([14]; brains of CD-1 mice, 60 min after intravenous administration): 98% | proportion of unchanged PET tracer in plasma ([14]; mouse, in vivo, iv): 75% | uptake in the brain (σ1 receptor [15]; 5 min p.i.): 3.88 % ID/g | uptake in the brain (σ1 receptor [15]; 30 min p.i.): 4.71 % ID/g | uptake in the brain (σ1 receptor [15]; 120 min p.i.): 2.82 % ID/g | Ratio of activity concentration, cerebellum vs. olfactory bulb (σ1 receptor [15]; mouse, 45 min p.i., N = 1): 1.75 | Ratio of activity concentration, cortex vs. olfactory bulb (σ1 receptor [15]; mouse, 45 min p.i., N = 1): 1.45 | Ratio of activity concentration, facial nucleus vs. olfactory bulb (σ1 receptor [15]; mouse, 45 min p.i., N = 1): 4.69 | Ratio of activity concentration, hippocampus vs. olfactory bulb (σ1 receptor [15]; mouse, 45 min p.i., N = 1): 1.21 | Ratio of activity concentration, striatum vs. olfactory bulb (σ1 receptor [15]; mouse, 45 min p.i., N = 1): 1.11 | Ratio of activity concentration, superficial grey layer of superior colliculus vs. olfactory bulb (σ1 receptor [15]; mouse, 45 min p.i., N = 1): 1.57 | Ratio of activity concentration, thalamus vs. olfactory bulb (σ1 receptor [15]; mouse, 45 min p.i., N = 1): 1.24

Source: article PMC10892410, “[^18F]Fluspidine—A PET Tracer for Imaging of σ1 Receptors in the Central Nervous System” (Pharmaceuticals, 2024)
